The NIST ThermoML archive (doi:10.1021/je400056z)
± gives the expanded uncertainty stated by the source.

Experiment: xn = mol fraction of the nth substance listed
Conditions: Liquid, Vibrating tube method

CCCCCCC [heptane] + O=C=O
Conditions | mass density [kg/m3]
352.3 K, 20004 kPa, x2 = 0.7514 | 694.21 ± 0.45
352.3 K, 21007 kPa, x2 = 0.7514 | 699.11 ± 0.45
352.3 K, 22009 kPa, x2 = 0.7514 | 703.64 ± 0.45
352.3 K, 22989 kPa, x2 = 0.7514 | 707.97 ± 0.45
352.3 K, 24025 kPa, x2 = 0.7514 | 712.39 ± 0.45
352.3 K, 24893 kPa, x2 = 0.7514 | 715.94 ± 0.48
352.44 K, 4005 kPa, x2 = 0.0218 | 638.36 ± 0.29
352.44 K, 5013 kPa, x2 = 0.0218 | 639.84 ± 0.3
352.44 K, 6005 kPa, x2 = 0.0218 | 641.24 ± 0.31
352.44 K, 7000 kPa, x2 = 0.0218 | 642.57 ± 0.32
352.44 K, 8008 kPa, x2 = 0.0218 | 643.95 ± 0.33
352.44 K, 9006 kPa, x2 = 0.0218 | 645.27 ± 0.34
352.44 K, 10002 kPa, x2 = 0.0218 | 646.56 ± 0.35
352.44 K, 11002 kPa, x2 = 0.0218 | 647.79 ± 0.36
352.44 K, 12000 kPa, x2 = 0.0218 | 649.14 ± 0.37
352.44 K, 13002 kPa, x2 = 0.0218 | 650.25 ± 0.38
352.44 K, 13998 kPa, x2 = 0.0218 | 651.46 ± 0.39
352.44 K, 15011 kPa, x2 = 0.0218 | 652.7 ± 0.39
352.44 K, 16006 kPa, x2 = 0.0218 | 653.84 ± 0.4
352.44 K, 17009 kPa, x2 = 0.0218 | 654.98 ± 0.41
352.44 K, 17993 kPa, x2 = 0.0218 | 656.08 ± 0.42
352.44 K, 18998 kPa, x2 = 0.0218 | 657.17 ± 0.43
352.44 K, 20004 kPa, x2 = 0.0218 | 658.27 ± 0.44
352.44 K, 21002 kPa, x2 = 0.0218 | 659.34 ± 0.45
352.44 K, 22002 kPa, x2 = 0.0218 | 660.39 ± 0.46
352.44 K, 23003 kPa, x2 = 0.0218 | 661.43 ± 0.47
352.44 K, 23998 kPa, x2 = 0.0218 | 662.47 ± 0.48
352.44 K, 25014 kPa, x2 = 0.0218 | 663.51 ± 0.49
352.51 K, 9000 kPa, x2 = 0.5085 | 656.72 ± 0.35
352.51 K, 10004 kPa, x2 = 0.5085 | 660.28 ± 0.35
352.51 K, 11004 kPa, x2 = 0.5085 | 663.66 ± 0.36
352.51 K, 12007 kPa, x2 = 0.5085 | 666.9 ± 0.37
352.51 K, 13000 kPa, x2 = 0.5085 | 670.03 ± 0.37
352.51 K, 14003 kPa, x2 = 0.5085 | 673 ± 0.38
352.51 K, 15002 kPa, x2 = 0.5085 | 675.9 ± 0.39
352.51 K, 15998 kPa, x2 = 0.5085 | 678.62 ± 0.39
352.51 K, 17010 kPa, x2 = 0.5085 | 681.33 ± 0.4
352.51 K, 18003 kPa, x2 = 0.5085 | 683.88 ± 0.41
352.51 K, 19006 kPa, x2 = 0.5085 | 686.38 ± 0.41
352.51 K, 20013 kPa, x2 = 0.5085 | 688.8 ± 0.42
352.51 K, 21004 kPa, x2 = 0.5085 | 691.17 ± 0.43
352.51 K, 22004 kPa, x2 = 0.5085 | 693.46 ± 0.43
352.51 K, 23002 kPa, x2 = 0.5085 | 695.71 ± 0.44
352.51 K, 24007 kPa, x2 = 0.5085 | 697.91 ± 0.45
352.51 K, 25011 kPa, x2 = 0.5085 | 700.05 ± 0.45
352.54 K, 15235 kPa, x2 = 0.9496 | 511.88 ± 0.9
352.54 K, 15989 kPa, x2 = 0.9496 | 538.42 ± 0.85
352.54 K, 17004 kPa, x2 = 0.9496 | 568.84 ± 0.77
352.54 K, 18001 kPa, x2 = 0.9496 | 594.2 ± 0.71
352.54 K, 18993 kPa, x2 = 0.9496 | 616.18 ± 0.67
352.54 K, 20006 kPa, x2 = 0.9496 | 635.42 ± 0.63
352.54 K, 20999 kPa, x2 = 0.9496 | 652.26 ± 0.61
352.54 K, 22018 kPa, x2 = 0.9496 | 667.75 ± 0.58
352.54 K, 22994 kPa, x2 = 0.9496 | 681.03 ± 0.57
352.54 K, 24034 kPa, x2 = 0.9496 | 693.84 ± 0.55
362.09 K, 12975 kPa, x2 = 0.7514 | 586.38 ± 0.62
362.09 K, 14000 kPa, x2 = 0.7514 | 602.3 ± 0.59
362.09 K, 14863 kPa, x2 = 0.7514 | 613.15 ± 0.56
362.09 K, 16010 kPa, x2 = 0.7514 | 625.83 ± 0.54
362.09 K, 17009 kPa, x2 = 0.7514 | 635.46 ± 0.59
362.09 K, 18017 kPa, x2 = 0.7514 | 644.3 ± 0.58
362.09 K, 19007 kPa, x2 = 0.7514 | 652.35 ± 0.56
362.09 K, 20005 kPa, x2 = 0.7514 | 659.83 ± 0.55
362.09 K, 21006 kPa, x2 = 0.7514 | 666.86 ± 0.53
362.09 K, 22003 kPa, x2 = 0.7514 | 672.93 ± 0.52
362.09 K, 22995 kPa, x2 = 0.7514 | 679.37 ± 0.52
362.09 K, 24000 kPa, x2 = 0.7514 | 685.55 ± 0.51
362.09 K, 24866 kPa, x2 = 0.7514 | 690.92 ± 0.51
362.19 K, 7007 kPa, x2 = 0.3148 | 638.82 ± 0.33
362.19 K, 8020 kPa, x2 = 0.3148 | 641.6 ± 0.34
362.19 K, 9013 kPa, x2 = 0.3148 | 644.14 ± 0.35
362.19 K, 10009 kPa, x2 = 0.3148 | 646.61 ± 0.36
362.19 K, 11005 kPa, x2 = 0.3148 | 648.99 ± 0.36
362.19 K, 12009 kPa, x2 = 0.3148 | 651.27 ± 0.37
362.19 K, 12998 kPa, x2 = 0.3148 | 653.42 ± 0.38
362.19 K, 13999 kPa, x2 = 0.3148 | 655.52 ± 0.39
362.19 K, 15011 kPa, x2 = 0.3148 | 657.61 ± 0.4
362.19 K, 16007 kPa, x2 = 0.3148 | 659.59 ± 0.4
362.19 K, 17005 kPa, x2 = 0.3148 | 661.48 ± 0.41
362.19 K, 18002 kPa, x2 = 0.3148 | 663.3 ± 0.42
362.19 K, 18999 kPa, x2 = 0.3148 | 665.1 ± 0.43
362.19 K, 20006 kPa, x2 = 0.3148 | 666.9 ± 0.44
362.19 K, 21004 kPa, x2 = 0.3148 | 668.62 ± 0.45
362.19 K, 22001 kPa, x2 = 0.3148 | 670.29 ± 0.45
362.19 K, 23006 kPa, x2 = 0.3148 | 671.94 ± 0.46
362.19 K, 24001 kPa, x2 = 0.3148 | 673.55 ± 0.47
362.19 K, 25007 kPa, x2 = 0.3148 | 675.13 ± 0.48
362.25 K, 17354 kPa, x2 = 0.9496 | 518.07 ± 0.81
362.25 K, 17995 kPa, x2 = 0.9496 | 536.06 ± 0.78
362.25 K, 19006 kPa, x2 = 0.9496 | 561.22 ± 0.74
362.25 K, 20005 kPa, x2 = 0.9496 | 583.24 ± 0.7
362.25 K, 21002 kPa, x2 = 0.9496 | 602.87 ± 0.67
362.25 K, 21997 kPa, x2 = 0.9496 | 620.08 ± 0.64
362.25 K, 22998 kPa, x2 = 0.9496 | 635.9 ± 0.62
362.25 K, 24005 kPa, x2 = 0.9496 | 650.25 ± 0.6
362.25 K, 24186 kPa, x2 = 0.9496 | 652.75 ± 0.6
362.38 K, 4014 kPa, x2 = 0.0218 | 629.41 ± 0.3
362.38 K, 5003 kPa, x2 = 0.0218 | 630.95 ± 0.31
362.38 K, 6009 kPa, x2 = 0.0218 | 632.44 ± 0.32
362.38 K, 7003 kPa, x2 = 0.0218 | 633.95 ± 0.32
362.38 K, 8010 kPa, x2 = 0.0218 | 635.37 ± 0.33
362.38 K, 9008 kPa, x2 = 0.0218 | 636.85 ± 0.34
362.38 K, 9009 kPa, x2 = 0.5085 | 638.92 ± 0.36
362.38 K, 10008 kPa, x2 = 0.5085 | 643.09 ± 0.37
362.38 K, 10010 kPa, x2 = 0.0218 | 638.18 ± 0.35
362.38 K, 10998 kPa, x2 = 0.5085 | 646.98 ± 0.37
362.38 K, 11002 kPa, x2 = 0.0218 | 639.5 ± 0.36
362.38 K, 12004 kPa, x2 = 0.0218 | 640.84 ± 0.37
362.38 K, 12009 kPa, x2 = 0.5085 | 650.8 ± 0.4
362.38 K, 13001 kPa, x2 = 0.0218 | 642.13 ± 0.38
362.38 K, 13001 kPa, x2 = 0.5085 | 654.31 ± 0.41
362.38 K, 14002 kPa, x2 = 0.5085 | 657.71 ± 0.41
362.38 K, 14009 kPa, x2 = 0.0218 | 643.41 ± 0.39
362.38 K, 15004 kPa, x2 = 0.0218 | 644.62 ± 0.4
362.38 K, 15013 kPa, x2 = 0.5085 | 660.97 ± 0.42
362.38 K, 16005 kPa, x2 = 0.0218 | 645.88 ± 0.41
362.38 K, 16008 kPa, x2 = 0.5085 | 664.05 ± 0.42
362.38 K, 16999 kPa, x2 = 0.0218 | 647.06 ± 0.42
362.38 K, 17005 kPa, x2 = 0.5085 | 667.09 ± 0.42
362.38 K, 18001 kPa, x2 = 0.0218 | 648.25 ± 0.43
362.38 K, 18005 kPa, x2 = 0.5085 | 670.02 ± 0.43
362.38 K, 18994 kPa, x2 = 0.0218 | 649.38 ± 0.44
362.38 K, 19006 kPa, x2 = 0.5085 | 672.76 ± 0.43
362.38 K, 19999 kPa, x2 = 0.0218 | 650.56 ± 0.45
362.38 K, 20009 kPa, x2 = 0.5085 | 675.44 ± 0.44
362.38 K, 21006 kPa, x2 = 0.0218 | 651.69 ± 0.46
362.38 K, 21006 kPa, x2 = 0.5085 | 678.11 ± 0.45
362.38 K, 22002 kPa, x2 = 0.0218 | 652.83 ± 0.47
362.38 K, 22010 kPa, x2 = 0.5085 | 680.57 ± 0.45
362.38 K, 23002 kPa, x2 = 0.5085 | 683.07 ± 0.46
362.38 K, 23003 kPa, x2 = 0.0218 | 653.91 ± 0.48
362.38 K, 23995 kPa, x2 = 0.0218 | 655.01 ± 0.49
362.38 K, 23997 kPa, x2 = 0.5085 | 685.41 ± 0.46
362.38 K, 25005 kPa, x2 = 0.0218 | 656.12 ± 0.5
362.38 K, 25008 kPa, x2 = 0.5085 | 687.82 ± 0.47
